For experiment [1], the system named is VELE (velvetleaf). Put plainly: Greenhouse test Procedure II (Example 4; Table 4). The format is in vivo, Abutilon theophrasti. As to conditions: 3 weeks. On the procedure: (§1) Containers were filled and compacted with a fumigated silt loam top soil to a depth of about 1.3 cm from the top of the container. A first container was designated as an untreated control, a second container was designated as a herbicide control, and a third container was designated as a herbicide + antidote test container. Each of the containers was seeded with a crop species. A measured amount of herbicide dispersed or dissolved in acetone was applied to a measured quantity of soil. To this same quantity of soil treated with herbicide, there was added a measured amount of antidote dispersed or dissolved in acetone. The quantity of soil treated with the herbicide and antidote was thoroughly mixed to incorporate the herbicide and antidote in the soil uniformly. The seed bed in the third container of soil was covered with the soil treated with the herbicide and antidote and the container was leveled. For each test series, the seed beds of the first and second containers were likewise covered by soil layers. the cover layer of the first container was not treated with herbicide or antidote.
(§2) This procedure is the same as Procedure I, but modified in the manner that after incorporation of the chemicals (herbicide, antidote and insecticide), the containers with the covered seedbed were treated with an initial overhead irrigation equivalent to 0.6 cm rainfall, then subsequently sub-irrigated as required on greenhouse benches.
(§3) The procedure used in this test was Procedure No. 2 above. Formulations of herbicide, insecticide and antidote were applied via track sprayer sequentially onto cover layers, incorporated into the soil which was spread over seedbeds, then irrigated from above with 0.6 cm water. Observations were made three (3) weeks after treatment.

The subject of experiment [2] is Corn. The experiment is described as follows: Greenhouse test Procedure II: herbicide, insecticide and antidote incorporated in cover layer (Example 4; Table 4). The format is in vivo. The following applies: 3 weeks. On the procedure:
as §1, §2, §3

The test system of experiment [3] is Corn.
Experiment [4] relates to SJCA. Put plainly: Greenhouse test Procedure IV: herbicide, biocide and antidote PPI, weed SJCA (Examples 53-55; Tables 52-54). As to conditions: for inhibition at 140 g/ha: Herbicide No. 18 0.14 Kg/Ha, all PPI. The format is in vivo. An excerpt: The test in this example paralleled that in Example 51, except the procedure was according to Procedure IV above and the herbicides used were No. 1 (MON-12000); No. 21 (XRD-498) and, again, No. 18 (PURSUIT); the biocide was, again, MOCAP®. Observations were taken thirteen (13) days after PPI treatment with biocide and antidote.
This test was identical to that in Example 52, except for use of a different biocide, DIAZINON (Biocide No. 5, a nematicide and soil insecticide).
This test was also identical to that in the preceding two examples, except that the biocide was malathion (No. 7, an insecticide).
This test was identical to the preceding ones, except the biocide was DPX-43898 (No. 6, active ingredient in FORTRESS® insecticide, a soil insecticide). Also, the observation time was fourteen (14) days after PPI initiation.

Experiment [5] concerns Velvetleaf (VELE). Put plainly: whole plant or invertebrate. The format is in vivo, Abutilon theophrasti. The following applies: for inhibition at 140 g/ha: Abutilon theophrasti, iv, Herbicide No. 18 0.14 Kg/Ha, all PPI.
In experiment [6] the test system is Shattercane (SHCA). The format is in vivo.
For experiment [7], the system named is Corn. This is another data set of the same source.
Experiment [8] has as its system Velvetleaf (VELE). The class given is in vivo, Abutilon theophrasti.
For experiment [9], the system named is Corn. The experiment is described as follows: whole plant or invertebrate. As to conditions: Zea mays, iv, Herbicide No. 18 0.14 Kg/Ha, all PPI.
Experiment [10] deals with Giant foxtail (GIFT). Put plainly: whole plant or invertebrate. The format is in vivo. As to conditions: Setaria faberi, iv, 312 h, Table 51; Herbicide No. 18 0.14 Kg/Ha; where applied Biocide No. 8 8.96 kg/Ha and antidote 4.48 Kg/Ha; all PPI; observed 13 days after treatment.
[11] abbreviates: Insecticide 2 3.36 + Herbicide 4 0.07 kg/Ha.
[12] abbreviates: Insecticide 2 3.36 + Herbicide 4 0.14 kg/Ha.
[13] abbreviates: Insecticide 2 3.36 + Herbicide 5 0.07 kg/Ha.
[14] abbreviates: Insecticide 2 3.36 + Herbicide 5 0.14 kg/Ha.
[15] abbreviates: Insecticide 2 3.36 + Herbicide 6 0.07 kg/Ha.
Setting [16] is: Insecticide 2 3.36 + Herbicide 6 0.14 kg/Ha.
Setting [17] is: Table 52, Biocide No. 5 alone 8.96 kg/Ha PPI, observed 13 days after treatment.
Where [18] appears, read: Table 54, Biocide No. 6 alone 8.96 kg/Ha PPI, observed 14 days after PPI initiation.
The mark [19] stands for this setting: Herbicide No. 18 0.0175 Kg/Ha POE alone, Table 17.
The mark [20] stands for this setting: Herbicide No. 18 0.0175 Kg/Ha POE alone, Table 18.
Where [21] appears, read: Herbicide No. 18 alone, POE 5 DAP, observed 13 DAP.
Setting [22] is: no antidote, […], observed 10 days after herbicide application.
The mark [23] stands for this setting: 312 h, Table 52, where applied Biocide No. 5 8.96 kg/Ha and antidote 4.48 Kg/Ha, observed 13 days after treatment.
The mark [24] stands for this setting: 336 h, Table 54, where applied Biocide No. 6 8.96 kg/Ha and antidote 4.48 Kg/Ha, observed 14 days after PPI initiation.
The mark [25] stands for this setting: Table 53, Biocide No. 7 alone 8.96 kg/Ha PPI, observed 13 days after treatment.

Like-named read-outs stand apart in the source and are kept apart here.

For the compound “2-Thiophenecarboxylic acid, 3-[[[[(4,6-dimethoxy-1,3,5-triazin-2-yl)amino]carbonyl]amino]sulfonyl]-, methyl ester [Herbicide No. 4]”, the “% Injury VELE” value in experiment [1] (Herbicide 4 0.07 kg/Ha) was found to be 10%; in experiment [1] (Herbicide 4 0.14 kg/Ha) it was 52%; in experiment [1] (setting [11]), 55%; in experiment [1] (setting [12]), 5%. Moreover, the “% Injury Corn” value was 15% in experiment [2] (Herbicide 4 0.07 kg/Ha), 38% in experiment [2] (Herbicide 4 0.14 kg/Ha), 83% in experiment [2] (setting [11]) and 80% in experiment [2] (setting [12]).
For `CCOC(=O)c1ccccc1S(=O)(=O)NC(=O)Nc1nc(Cl)cc(OC)n1` [Herbicide No. 5, Benzoic acid, 2-[[[[(4-chloro-6-methoxy-2-pyrimidin-2-yl)amino]carbonyl]amino]sulfonyl]ethyl ester], the “% Injury VELE” value in experiment [1] (Herbicide 5 0.07 kg/Ha) is given as 57%; in experiment [1] (Herbicide 5 0.14 kg/Ha) it was 77%; in [1] (setting [13]), 83%; in [1] (setting [14]), 70%. The “% Injury Corn” value was 88% in [2] (Herbicide 5 0.07 kg/Ha), 92% in [2] (Herbicide 5 0.14 kg/Ha), 95% in [2] (setting [13]) and 98% in experiment [2] (setting [14]).
As for `CCc1cnc(C2=NC(C)(C(C)C)C(=O)N2)c(C(=O)O)c1` (centres unmarked) [Herbicide No. 6, 3-Pyridinecarboxylic acid, 2-[4,5-dihydro-4-methyl-4-(1-methylethyl)-5-oxo-1H-imidazol-2-yl]5-ethyl], the “% Injury VELE” value is recorded as 33% in experiment [1] (Herbicide 6 0.07 kg/Ha), 32% in [1] (Herbicide 6 0.14 kg/Ha), 30% in experiment [1] (setting [15]) and 20% in [1] (setting [16]). The “% Injury Corn” value in [2] (Herbicide 6 0.07 kg/Ha) was 2%; in experiment [2] (Herbicide 6 0.14 kg/Ha), 23%; in [2] (setting [15]), 65%; in [2] (setting [16]), 43%.
For the compound `CCOP(=S)(OCC)Oc1cc(C)nc(C(C)C)n1` [Biocide No. 5, O,O-Diethyl (-(2-isopropyl-4-methyl-6-pyrimidinyl phosphorothioate, reference compound], the “% Inhibition Corn” value in [3] (setting [17]) came to 0%. Further, the “% Inhibition SJCA” value in [4] (setting [17]) is 50%. Further, in experiment [5] (setting [17]), the “% Inhibition VELE” value is 25%.
For the compound `CCOP(=S)(OCC)OC(Cl)C(Cl)(Cl)Cl` (centres unmarked) [Biocide No. 6, O,O-Diethyl-O-1,2,2,2-tetrachloroethyl phosphorothioate, reference compound], the “% Inhibition Corn” value in [3] (setting [18]) was determined as 0%. For the same compound, the “% Inhibition SJCA” value in experiment [4] (setting [18]) is given as 0%. The “% Inhibition VELE” value in [5] (setting [18]) amounted to 0%.
`CC(C)C1(C)N=C(c2ncccc2C(=O)O)NC1=O` (centres unmarked) [Herbicide No. 18, 3-Pyridinecarboxylic acid, 2-[4,5-dihydro-4-methyl-4-(1-methylethyl)-5-oxo-1H-imidazol-2-yl]-, reference compound]: the “% Inhibition SHCA” value in experiment [6] (setting [19]) is on record as 65%; in experiment [6] (setting [20]) it was 45%; in [6] (setting [21]), 20%; in experiment [6] (Table 50, Herbicide No. 18 0.017 Kg/Ha POE, where applied Biocide No. 8 8.96 kg/Ha and antidote 4.48 Kg/Ha PPI, observed 9 days after POE), 40%; in [6] (setting [22]) it was 60%. Besides, the “% Inhibition Corn” value came out at 15% in [7] (setting [19]), 10% in experiment [7] (setting [20]) and 5% in experiment [7] (setting [21]). For the same compound, the “% Inhibition VELE” value came to 80% in experiment [8] (setting [19]), 85% in experiment [8] (setting [20]), 80% in experiment [8] (in vivo) and 80% in [8] (setting [22]). Besides, the inhibition at 140 g/ha in experiment [4] (setting [23]) came out at 75%; in experiment [4] (312 h, Table 53, where applied Biocide No. 7 8.96 kg/Ha and antidote 4.48 Kg/Ha, observed 13 days after treatment), 70%; in [4] (setting [24]), 75%; in [5] (312 h, Table 51, where applied Biocide No. 8 8.96 kg/Ha and antidote 4.48 Kg/Ha, observed 13 days after treatment), 65%; in experiment [5] (setting [23]) it was 75%; in [5] (setting [24]), 70%. Besides, the inhibition at 140 g/ha was 15% in experiment [9] (312 h, read-out: % Inhibition Corn, Table 51, where applied Biocide No. 8 8.96 kg/Ha and antidote 4.48 Kg/Ha, observed 13 days after treatment); 10% in experiment [9] (312 h, read-out: % Inhibition Corn, Table 52, where applied Biocide No. 5 8.96 kg/Ha and antidote 4.48 Kg/Ha, observed 13 days after treatment); 15% in experiment [9] (312 h, read-out: % Inhibition Corn, Table 53, where applied Biocide No. 7 8.96 kg/Ha and antidote 4.48 Kg/Ha, observed 13 days after treatment); 15% in [9] (336 h, read-out: % Inhibition Corn, Table 54, where applied Biocide No. 6 8.96 kg/Ha and antidote 4.48 Kg/Ha, observed 14 days after PPI initiation); 75% in experiment [10].
For `CCOC(=O)CC(SP(=S)(OC)OC)C(=O)OCC` (centres unmarked) [Biocide No. 7, O,O-Dimethyl phosphorothioate of diethyl mercaptosuccinate, reference compound], the “% Inhibition Corn” value in [3] (setting [25]) is on record as 0%. The “% Inhibition SJCA” value in experiment [4] (setting [25]) is on record as 0%. Also, the “% Inhibition VELE” value in experiment [5] (setting [25]) is given as 0%.

One may read the inhibition as the share of the control response that was lost under treatment.

(Values after patent EP0565593B1, “REDUCING PESTICIDAL INTERACTIONS IN CROPS” (priority 1990, dated 1992).)
